Reference: patent US10919869B2, “Thiazole derivative and applications” (EAST CHINA UNIVERSITY OF SCIENCE AND TECHNOLOGY, priority 2016, dated 2021)

molecular target: hsDHODH (Homo sapiens (Human), UniProt Q02127); assay: Activity test at enzyme level: DHODH inhibition, DCIP absorbance at 600 nm; type: biochemical; conditions: purified DHODH 10 nM, DHO 500 μM, CoQ 100 μM, DCIP 120 μM; read-out: IC50 (μM) hsDHODH
Method: Culture and Purification of hsDHODH Protein
The correctly sequenced recombinant plasmid pET-19b-DHODH was transformed into competent E. coli BL21 (DE3), and cultured on LB plate containing ampicillin. Colonies were randomly selected, inoculated into LB medium containing […], and incubate overnight at 37° C., 230 rpm. The cells were inoculated at a ratio of 1:200 in 500 mL of LB medium containing […] and expanded at 37° C., 230 rpm. When the OD value of the cells reached 0.8-1, IPTG was added into the medium to a final concentration of IPDG of 0.5 mM, and expression was induced overnight at 25° C. The induced cells were collected by centrifugation at […], 4° C., washed with deionized water, and centrifuged again to collect the bacterial pellet, which was stored at −80° C.
Purification of protein: cells were re-suspended in lysis liquid containing 50 mM HEPES (pH 8.0), 0.15 M NaCl, 10 mM imidazole, 10% glycerol, 0.1% Triton X-100, and a small amount of soy protease inhibitor added. After re-suspended and mixed homogeneously, cells were ultrasonically disrupted. The disruption solution was centrifuged for 30 min, and the supernatant and precipitate were taken for protein electrophoresis to determine the form of protein. The supernatant was loaded onto a Ni-NTA column, and the pass-through liquid was collected, and then the resin was washed for 3-4 times with a lysis liquid containing 20 mM imidazole, and finally eluted with a lysis liquid containing 300 mM imidazole. After elution, protein solution was collected. 10 μL of the above protein sample was taken for SDS-PAGE electrophoresis to determine the content of target protein. Finally, the eluted protein solution is dialyzed in the dialysis liquid to remove imidazole, thereby obtaining a pure protein.
Method for Testing Activities of Compounds at Enzyme Level
Principles of activity test at enzyme level: firstly, dihydroorotate (DHO) is oxidatively dehydrogenated by DHODH to form orotic acid (Orotate, OA), accompanied by reduction of Flavin mononucleotide (FMN) into reduced flavin mononucleotide (FMNH2) by accepting 2H+ and 2e−, then coenzyme Q (CoQ) as hydrogen acceptor accepting electron and proton from FMNH2 is reduced into reduced coenzyme Q (CoQH2), reduced coenzyme Q transfers electrons to a chromogenic substrate, […] (DCIP), and finally DCIP was reduced. […] The degree to which the substrate DHO is oxidized can be judged based on the degree of decrease in absorbance. The degree of oxidation of the substrate DHO per unit time is the initial rate of the enzymatic reaction. Upon addition of a inhibitor, the initial rate of the enzymatic reaction is reduced.
Substrate DHO was added to start the reaction with a DHO final concentration of 500 μM. The absorbance was read at 600 nm using a BioTek microplate reader and read every 30 s for 6 min. […] For calculating IC50 of a compound, Origin 8.0 was used to test the inhibition rate at least 8 concentrations.

Chain of hsDHODH (Q02127 whole entry): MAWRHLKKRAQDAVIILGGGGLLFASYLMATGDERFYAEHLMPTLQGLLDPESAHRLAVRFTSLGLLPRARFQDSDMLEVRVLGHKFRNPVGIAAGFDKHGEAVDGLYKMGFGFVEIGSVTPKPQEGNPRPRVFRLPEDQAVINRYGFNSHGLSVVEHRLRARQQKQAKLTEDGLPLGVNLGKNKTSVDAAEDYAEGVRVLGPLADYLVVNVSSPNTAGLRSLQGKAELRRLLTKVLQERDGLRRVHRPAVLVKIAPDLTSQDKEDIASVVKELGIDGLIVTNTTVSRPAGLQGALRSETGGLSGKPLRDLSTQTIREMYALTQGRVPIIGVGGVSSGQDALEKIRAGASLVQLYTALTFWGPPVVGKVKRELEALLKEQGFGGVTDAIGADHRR

First: CCCN(/N=C/c1ccccc1C(=O)O)c1nc(-c2ccccc2Cl)cs1 [Compound 3, (E)-4-(2-chlorophenyl)-2-[1-propyl-2-(2-carboxybenzylidene)hydrazino]thiazole]
Second: CCCC(C)N(/N=C/c1ccccc1C(=O)O)c1nc(-c2ccccc2Cl)cs1 (stereo not drawn) [Compound 6, (E)-4-(2-chlorophenyl)-2-[1-(2-amyl)-2-(2-carboxybenzylidene)hydrazino]thiazole]
The IC50 of the first is 2.2-fold lower: 0.0086 ± 0.0001 µM for the first, 0.0191 ± 0.0006 µM for the second.

Going from CN(/N=C/c1ccc(C(F)(F)F)cc1C(=O)O)c1nc(-c2ccccc2Cl)cs1 [Compound 8, (E)-4-(2-chlorophenyl)-2-[1-methyl-2-(4-trifluoromethyl-2-carboxybenzylidene)hydrazino]thiazole] to CN(/N=C/c1ccc(F)cc1C(=O)O)c1nc(-c2ccccc2Cl)cs1 [Compound 10, (E)-4-(2-chlorophenyl)-2-[1-methyl-2-(2-carboxyl-4-fluorobenzylidene)hydrazino]thiazole], the IC50 falls from 0.0868 ± 0.0009 µM to 0.0018 ± 0.0001 µM (48-fold). The second is the more potent here.

First: Cc1ccc(/C=N/N(C)c2nc(-c3ccccc3Cl)cs2)c(C(=O)O)c1 [Compound 9, (E)-4-(2-chlorophenyl)-2-[1-methyl-2-(4-methyl-2-carboxybenzylidene)hydrazino]thiazole]
Second: CN(/N=C/c1ccccc1C(=O)O)c1nc(-c2cc(Cl)ccc2Cl)cs1 [Compound 19, (E)-4-(2,5-dichlorophenyl)-2-[1-methyl-2-(2-carboxybenzylidene)hydrazino]thiazole]
The IC50 of the first is 3.4-fold lower: 0.0084 ± 0.0001 µM for the first, 0.0282 µM for the second. The first is the more potent here.

Going from Cc1ccc(/C=N/N(C)c2nc(-c3ccccc3)c(C)s2)c(C(=O)O)c1 [Compound 11, (E)-5-methyl-4-phenyl-2-[1-methyl-2-(4-methyl-2-carboxybenzylidene)hydrazino]thiazole] to Cc1sc(N(C)/N=C/c2ccccc2C(=O)O)nc1-c1ccccc1 [Compound 12, (E)-5-methyl-4-phenyl-2-[1-methyl-2-(2-carboxybenzylidene)hydrazino]thiazole], the IC50 falls from 0.0136 ± 0.0005 µM to 0.0088 ± 0.0001 µM (1.5-fold). The second is the more potent here.

First: CCc1sc(N/N=C/c2ccccc2C(=O)O)nc1-c1ccccc1Cl [Compound 14, (E)-5-ethyl-4-(2-chlorophenyl)-2-(2-carboxylbenzylidenehydrazino)thiazole]
Second: Cc1sc(N/N=C/c2ccccc2C(=O)O)nc1-c1ccccc1Cl [Compound 15, (E)-5-methyl-4-(2-chlorophenyl)-2-(2-carboxylbenzylidenehydrazino)thiazole]
The IC50 of the first is 5.4-fold higher: 0.356 ± 0.0064 µM for the first, 0.0662 ± 0.0002 µM for the second. The second is the more potent here.

Going from Cc1sc(N/N=C/c2ccccc2C(=O)O)nc1-c1ccccc1 [Compound 17, (E)-5-methyl-4-phenyl-2-(2-carboxylbenzylidenehydrazino)thiazole] to CN(/N=C/c1ccccc1C(=O)O)c1nc(-c2ccccc2)cs1 [Compound 20, (E)-4-phenyl-2-[1-methyl-2-(2-carboxybenzylidene)hydrazino]thiazole], the IC50 falls from 0.0811 ± 0.0001 µM to 0.0244 ± 0.0005 µM (3.3-fold).

First: CN(/N=C/c1ccccc1C(=O)O)c1nc(-c2cccc(Cl)c2)cs1 [Compound 21, (E)-4-(3-chlorophenyl)-2-[1-methyl-2-(2-carboxybenzylidene)hydrazino]thiazole]
Second: CN(/N=C/c1cc(F)c(F)cc1C(=O)O)c1nc(-c2ccccc2Cl)cs1 [Compound 23]
The IC50 of the first is 2.4-fold higher: 0.0106 µM for the first, 0.0044 µM for the second. The second is the more potent here.

Going from CCCC(C)N(/N=C/c1ccccc1C(=O)O)c1nc(-c2ccccc2Cl)c(C)s1 (stereo not drawn) [Compound 22, (E)-5-methyl-4-(2-chlorophenyl)-2-[1-(2-amyl)-2-(2-carboxybenzylidene)hydrazino]thiazole] to CN(/N=C/c1cc(N)c(F)cc1C(=O)O)c1nc(-c2ccccc2Cl)cs1 [Compound 25], the IC50 rises from 0.0154 ± 0.0002 µM to 0.0316 ± 0.0001 µM (2.1-fold).

First: CN(/N=C/c1cc(O)c(F)cc1C(=O)O)c1nc(-c2ccccc2Cl)cs1 [Compound 24]
Second: O=C(O)c1c(F)cccc1/C=N/Nc1nc(-c2ccccc2Cl)cs1 [Compound 58, (E)-2-((2-(4-(2-chlorophenyl)thiazol-2-yl)hydrazono)methyl)-6-fluorobenzoic acid]
The IC50 of the first is 11-fold lower: 0.0214 ± 0.0005 µM for the first, 0.234 ± 0.0068 µM for the second.
